Experimental data as given in PMC6348381, “Discovery of an MLLT1/3 YEATS Domain Chemical Probe” (Angewandte Chemie (International Ed. in English), 2018).

How the values were obtained:
ATAD2A = target: T1, ATAD2A (Homo sapiens, UniProt Q6PL18); test: Thermal shift assay, ATAD2A; assay type: binding
T1 construct: purchased in-house (SGC bromodomain thermal shift / AlphaScreen panel)
T1 sequence (Q6PL18 1-1390): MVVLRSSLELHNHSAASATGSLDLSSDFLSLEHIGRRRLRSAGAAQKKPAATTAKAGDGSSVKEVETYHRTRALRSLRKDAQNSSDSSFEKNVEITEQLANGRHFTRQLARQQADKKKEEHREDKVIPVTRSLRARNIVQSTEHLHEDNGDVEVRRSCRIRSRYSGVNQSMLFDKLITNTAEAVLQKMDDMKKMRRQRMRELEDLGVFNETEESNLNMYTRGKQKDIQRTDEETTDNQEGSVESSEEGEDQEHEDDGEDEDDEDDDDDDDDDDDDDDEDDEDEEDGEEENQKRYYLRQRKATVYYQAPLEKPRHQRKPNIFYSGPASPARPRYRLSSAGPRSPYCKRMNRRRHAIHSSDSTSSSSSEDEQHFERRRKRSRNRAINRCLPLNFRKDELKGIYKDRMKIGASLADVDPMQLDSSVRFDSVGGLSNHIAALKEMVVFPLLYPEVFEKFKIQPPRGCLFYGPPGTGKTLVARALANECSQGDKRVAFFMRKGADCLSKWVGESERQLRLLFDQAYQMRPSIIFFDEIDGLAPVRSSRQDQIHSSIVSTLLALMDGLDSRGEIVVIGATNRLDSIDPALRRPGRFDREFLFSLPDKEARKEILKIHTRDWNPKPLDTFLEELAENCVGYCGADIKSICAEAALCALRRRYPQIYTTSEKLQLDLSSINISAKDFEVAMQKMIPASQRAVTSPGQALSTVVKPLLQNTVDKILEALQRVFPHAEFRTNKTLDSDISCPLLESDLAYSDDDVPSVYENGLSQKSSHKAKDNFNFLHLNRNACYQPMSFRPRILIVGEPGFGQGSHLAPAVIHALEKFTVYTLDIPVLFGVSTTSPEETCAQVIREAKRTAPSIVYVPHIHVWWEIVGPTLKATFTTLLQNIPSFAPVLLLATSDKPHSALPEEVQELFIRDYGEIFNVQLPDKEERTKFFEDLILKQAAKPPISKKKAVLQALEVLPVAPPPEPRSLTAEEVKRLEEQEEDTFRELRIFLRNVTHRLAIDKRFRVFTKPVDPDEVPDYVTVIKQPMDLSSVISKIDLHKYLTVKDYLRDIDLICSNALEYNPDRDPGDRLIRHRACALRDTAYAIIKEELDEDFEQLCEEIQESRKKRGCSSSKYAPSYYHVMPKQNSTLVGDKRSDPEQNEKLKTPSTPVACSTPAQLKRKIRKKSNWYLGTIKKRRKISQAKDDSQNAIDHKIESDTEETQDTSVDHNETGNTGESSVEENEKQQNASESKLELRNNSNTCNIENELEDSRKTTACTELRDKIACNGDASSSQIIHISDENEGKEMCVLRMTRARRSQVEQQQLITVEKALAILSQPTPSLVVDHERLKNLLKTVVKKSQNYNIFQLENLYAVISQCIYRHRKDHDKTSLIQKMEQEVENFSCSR
Method: (§1) II.VII Thermal Shift Assay[6]
(§2) Thermal melting experiments were carried out using an Mx3005p Real Time PCR machine (Stratagene). Proteins were buffered in 10 mM HEPES pH 7.5, 500 mM NaCl and assayed in a 96-well plate at a final concentration of 2 μM in 20 μL volume. Compounds were added at a final concentration of 50 μM. SYPRO Orange (Molecular Probes) was added as a fluorescence probe at a dilution of 1:1000. Excitation and emission filters for the SYPRO-Orange dye were set to 465 nm and 590 nm, respectively. The temperature was raised with a step of 3 °C per minute from 25 °C to 96 °C and fluorescence readings were taken at each interval. The unfolding curves were fitted using the Boltzmann equation to determine the middle point of the transition.

WDR9(2) = target: T2, WDR9(2) (Homo sapiens, UniProt Q9NSI6); test: Thermal shift assay, WDR9(2); assay type: binding
T2 construct: Bromosporine with recombinant human bromodomain proteins; made in house
Method: as §1, §2

TRIM28 = target: T3, TRIM28 (Homo sapiens, UniProt Q13263); test: Thermal shift assay, TRIM28; assay type: binding
T3 construct: Bromosporine with recombinant human bromodomain proteins; made in house
Method: as §1, §2

TIF1a = target: T4, TIF1a (Homo sapiens, UniProt O15164); test: Thermal shift assay, TIF1a; assay type: binding
T4 construct: Bromosporine with recombinant human bromodomain proteins; made in house
T4 sequence (O15164 899-1004 limits assumed): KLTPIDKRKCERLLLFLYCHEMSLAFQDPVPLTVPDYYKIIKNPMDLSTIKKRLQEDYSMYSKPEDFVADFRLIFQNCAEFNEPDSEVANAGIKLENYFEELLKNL
Method: as §1, §2

ASH1L = target: T5, ASH1L (Homo sapiens, UniProt Q9NR48); test: Thermal shift assay, ASH1L; assay type: binding
T5 construct: purchased in-house (SGC bromodomain thermal shift / AlphaScreen panel)
Method: as §1, §2

FALZ = FALZ (Homo sapiens, UniProt Q12830); test: Thermal shift assay, FALZ; assay type: binding; parameters: purchased in-house (SGC bromodomain thermal shift / AlphaScreen panel)
Method: as §1, §2

LOC93349 = target: T6, LOC93349 (Homo sapiens, UniProt Q9H930); test: Thermal shift assay, LOC93349; assay type: binding
T6 construct: purchased in-house (SGC bromodomain thermal shift / AlphaScreen panel)
Method: as §1, §2

PCAF = target: T7, PCAF (Homo sapiens, UniProt Q92831); test: Thermal shift assay, PCAF; assay type: binding
T7 construct: purchased in-house (SGC bromodomain thermal shift / AlphaScreen panel)

PB1(4) = target: T8, PB1(4) (Homo sapiens, UniProt Q86U86); test: Thermal shift assay, PB1(4); assay type: binding
T8 construct: PB1(4); purchased in-house (SGC bromodomain thermal shift / AlphaScreen panel)
Method: as §1, §2

MLLT3 YD = target: T9, MLLT3 YD (Homo sapiens, UniProt P42568); test: Isothermal titration calorimetry (ITC), MLLT3 YD; assay type: binding
T9 construct: made in house; host or cells: E. coli Rosetta
Method: Supplementary Table 1. AlphaScreen selectivity screen of compound 92 over other acyllysine […]
II.III Isothermal Titration Calorimetry (ITC)
Experiments were carried out on a Nano -ITC Standard Volume Instrument (TA Instruments).
All experiments were carried out at 25 °C in 20 mM HEPES pH 7.5, 150 mM NaCl, 0.5 mM TCEP and 5% glycerol. Protein soluti ons were buffer exchanged by gel filtration. The titrations were conducted using an initial injection of 2 μL followed by 32 injections of 8 μL.
Background dilution heat was subtracted from each experiment. Thermodynamic parameters […]
changes in free energy, enthalpy and entropy respectively. Independent single site binding models were employed in data analysis.
(also on this page, place not known: ac yllysine Nano-ITC -T 1/ KB. ΔH Molar&ratio&[injectant/cell] Time&[s] Corrected&Heat&Rate&[ucal/s] Experiment&1 K Experiment&2 K K)
(1 picture or pasted object on this page, not shown here)

MLLT1 = target: T10, MLLT1 (Homo sapiens, UniProt Q03111); test: NanoBRET assay, full length MLLT1:Histone 3.3 in HEK293 cells; assay type: cell-based; details: relative to the DMSO control
T10 construct: We also developed a full length MLLT1:Histone 3.3 (H3.3) NanoBRET assay; host or cells: HEK293
T10 sequence (Q03111 whole entry): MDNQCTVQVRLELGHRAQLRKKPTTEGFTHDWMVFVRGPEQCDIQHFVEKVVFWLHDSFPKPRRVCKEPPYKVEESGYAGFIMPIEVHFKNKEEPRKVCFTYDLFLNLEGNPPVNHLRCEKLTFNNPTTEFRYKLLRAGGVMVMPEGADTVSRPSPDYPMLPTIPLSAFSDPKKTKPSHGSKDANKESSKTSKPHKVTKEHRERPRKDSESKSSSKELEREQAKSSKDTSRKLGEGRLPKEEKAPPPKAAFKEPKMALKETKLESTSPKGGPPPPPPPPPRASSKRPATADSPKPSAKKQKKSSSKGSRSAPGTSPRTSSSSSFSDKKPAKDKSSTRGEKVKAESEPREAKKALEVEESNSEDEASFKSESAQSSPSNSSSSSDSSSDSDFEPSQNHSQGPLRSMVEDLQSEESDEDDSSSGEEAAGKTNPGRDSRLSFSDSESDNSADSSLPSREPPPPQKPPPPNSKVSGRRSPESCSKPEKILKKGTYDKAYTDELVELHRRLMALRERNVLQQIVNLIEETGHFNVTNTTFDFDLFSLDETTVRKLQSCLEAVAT
Method: transfected with Histone H3.3-HaloTag (NM_002107) and a NanoLuciferase fusion of MLLT1 or MLLT3 (WT sequences from Promega HaloTag® human ORF in pFN21A) at a 1:500 and 1:10 (NanoLuc® to HaloTag®) ratio respectively with FuGENE HD transfection regent. Sixteen hours post-transfection, cells were collected and exchanged into media containing phenol red-free DMEM and 4% FBS in the absence (control sample) or the
Compounds were then added directly to media (in the presence of SAHA 2.5 M) at final concentrations 0.01-30 μM or an equivalent amount of DMSO as a vehicle control, and the plates were incubated for 24 h at 37 °C in the presence
NanoBRET Nano-Glo substrate (Promega) was added to both control and experimental samples at a final concentration of 10 µM. Readings were performed within 5 minutes using
BRET ratios are expressed as milliBRET units (mBU), where 1 mBU corresponds to the corrected BRET ratio multiplied by 1000.
Mean±SD of BRET ratio (mBU), n=4 technical replicates.

T7 sequence (Q92831 whole entry): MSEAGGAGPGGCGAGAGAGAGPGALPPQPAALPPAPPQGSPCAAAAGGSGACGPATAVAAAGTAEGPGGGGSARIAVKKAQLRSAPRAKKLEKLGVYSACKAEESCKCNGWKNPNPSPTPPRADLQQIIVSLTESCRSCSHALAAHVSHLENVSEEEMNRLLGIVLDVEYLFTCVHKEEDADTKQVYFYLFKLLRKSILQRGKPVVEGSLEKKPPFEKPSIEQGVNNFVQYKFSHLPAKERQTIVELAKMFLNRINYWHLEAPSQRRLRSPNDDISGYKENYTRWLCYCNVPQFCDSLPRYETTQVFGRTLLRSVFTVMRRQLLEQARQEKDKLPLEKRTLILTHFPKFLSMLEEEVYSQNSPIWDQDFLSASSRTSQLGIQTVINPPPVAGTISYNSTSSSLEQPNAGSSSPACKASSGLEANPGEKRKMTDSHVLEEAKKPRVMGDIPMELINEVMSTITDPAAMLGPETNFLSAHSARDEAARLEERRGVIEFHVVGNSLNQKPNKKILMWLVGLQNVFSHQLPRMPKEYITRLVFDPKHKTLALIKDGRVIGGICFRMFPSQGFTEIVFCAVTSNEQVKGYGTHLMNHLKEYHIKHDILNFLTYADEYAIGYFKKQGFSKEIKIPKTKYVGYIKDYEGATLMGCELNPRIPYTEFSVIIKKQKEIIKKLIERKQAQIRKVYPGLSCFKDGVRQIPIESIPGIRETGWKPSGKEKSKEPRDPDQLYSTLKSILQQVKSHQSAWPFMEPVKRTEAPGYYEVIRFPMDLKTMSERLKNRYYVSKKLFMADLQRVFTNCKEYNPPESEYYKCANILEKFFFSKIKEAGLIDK
T8 sequence (Q86U86 496-637 limits assumed): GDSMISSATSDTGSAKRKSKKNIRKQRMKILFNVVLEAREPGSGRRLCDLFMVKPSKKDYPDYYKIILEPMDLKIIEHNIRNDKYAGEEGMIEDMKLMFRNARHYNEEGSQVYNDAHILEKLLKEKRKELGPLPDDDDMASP
T2 sequence (Q9NSI6 1313-1418 limits assumed): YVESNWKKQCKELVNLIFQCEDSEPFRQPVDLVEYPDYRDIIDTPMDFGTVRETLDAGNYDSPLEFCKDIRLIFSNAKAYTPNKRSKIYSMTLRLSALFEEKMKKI
T6 sequence (Q9H930 whole entry): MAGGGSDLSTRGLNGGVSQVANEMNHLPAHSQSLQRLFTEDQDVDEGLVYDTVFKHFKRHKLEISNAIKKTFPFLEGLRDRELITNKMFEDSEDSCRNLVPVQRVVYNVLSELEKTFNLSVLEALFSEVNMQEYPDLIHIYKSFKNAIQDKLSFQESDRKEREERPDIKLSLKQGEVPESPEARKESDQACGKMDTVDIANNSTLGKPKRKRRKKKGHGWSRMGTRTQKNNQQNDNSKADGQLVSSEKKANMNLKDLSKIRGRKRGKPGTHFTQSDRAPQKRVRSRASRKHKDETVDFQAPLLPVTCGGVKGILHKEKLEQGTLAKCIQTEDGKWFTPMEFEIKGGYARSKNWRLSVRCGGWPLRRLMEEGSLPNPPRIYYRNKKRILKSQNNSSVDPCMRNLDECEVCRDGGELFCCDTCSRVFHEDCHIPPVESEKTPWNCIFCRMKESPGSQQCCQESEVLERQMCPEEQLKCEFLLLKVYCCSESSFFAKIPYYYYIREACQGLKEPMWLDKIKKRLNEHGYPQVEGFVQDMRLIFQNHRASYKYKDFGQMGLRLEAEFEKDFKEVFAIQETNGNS
T3 sequence (Q13263 695-799 limits assumed): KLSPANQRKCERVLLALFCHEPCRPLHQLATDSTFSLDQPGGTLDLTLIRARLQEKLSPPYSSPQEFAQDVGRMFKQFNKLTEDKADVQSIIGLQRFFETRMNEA
T9 sequence (P42568 1-138 limits assumed): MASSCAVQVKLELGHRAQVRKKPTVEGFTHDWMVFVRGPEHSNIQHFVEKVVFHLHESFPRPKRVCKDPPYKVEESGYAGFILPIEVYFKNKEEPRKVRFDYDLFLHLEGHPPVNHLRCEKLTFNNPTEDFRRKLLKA

Compound | Thermal stabilisation, ATAD2A (ATAD2A; 10 µM compound concentration) | Thermal stabilisation, WDR9(2) (WDR9(2); 10 µM compound concentration) | Thermal stabilisation, TRIM28 (TRIM28; 10 µM compound concentration) | Thermal stabilisation, TIF1a (TIF1a; 10 µM compound concentration) | Thermal stabilisation, ASH1L (ASH1L; 10 µM compound concentration) | Thermal stabilisation, FALZ (FALZ; 10 µM compound concentration) | Thermal stabilisation, LOC93349 (LOC93349; 10 µM compound concentration) | Thermal stabilisation, PCAF (PCAF; 10 µM compound concentration) | Thermal stabilisation, PB1(4) (PB1(4); 10 µM compound concentration) | Thermal stabilisation, ATAD2A (ATAD2A; 50 μM compound) | Thermal stabilisation, WDR9(2) (WDR9(2); 50 μM compound) | Thermal stabilisation, TRIM28 (TRIM28; 50 μM compound) | Thermal stabilisation, TIF1a (TIF1a; 50 μM compound) | Thermal stabilisation, ASH1L (ASH1L; 50 μM compound) | Thermal stabilisation, FALZ (FALZ; 50 μM compound) | Thermal stabilisation, LOC93349 (LOC93349; 50 μM compound) | Thermal stabilisation, PCAF (PCAF; 50 μM compound) | Thermal stabilisation, PB1(4) (PB1(4); 50 μM compound) | Kd (MLLT3 YD) [nM] | BRET activity (mBU), MLLT1:H3.3 NanoBRET (MLLT1)
CCOC(=O)Nc1cc(-c2ccc(C)c(NS(C)(=O)=O)c2)nn2c(C)nnc12 [Bromosporine, reference compound] | 0.67 | -1.225 | 0.265 | 0.16 | 0.51 | 1.5 | 2.385 | 1.025 | 1.035 |  |  |  |  |  |  |  |  |  |  | 
COC(=O)c1ccc(C(=O)Nc2ccc3[nH]c(CN4CCCCC4)nc3c2)cc1 [Compound 1] |  |  |  |  |  |  |  |  |  | 0.54 | -0.18 | 0.02 | -1.13 | 0.32 | 0.235 | 0.035 | 0.895 | 0.22 |  | 
C[C@H]1CCCN1Cc1nc2cc(NC(=O)c3ccc4c(cnn4C)c3)ccc2[nH]1 [Compound 92] |  |  |  |  |  |  |  |  |  | 0.56 | -0.775 | -0.225 | -1.04 | -0.305 | -0.315 | -1.05 | 0.05 | -0.215 | 77 | no reduction in mBU
